Values quoted from earlier work in patent publication US8415326B2, “Pharmaceutical composition comprising chito-oligomers” (Genis Ehf., priority 2001, dated 2013).

Columns and labels:
[1] = system: activated macrophages; details: reference [23]
[2] = system: mesothelial cells and fibroblasts; details: reference [11]
[3] = system: normal human articular chondrocytes; details: reference [24]

| SMILES | effect on nitric oxide (NO) production by activated macrophages [1] | synthesis of hyaluronan [2] | effect on NO production in normal human articular chondrocytes [3] |
| --- | --- | --- | --- |
| CC(=O)N[C@H]1[C@H](O[C@H]2[C@H](O)[C@@H](NC(C)=O)[C@H](O[C@H]3[C@H](O)[C@@H](NC(C)=O)C(O)O[C@@H]3CO)O[C@@H]2CO)O[C@H](CO)[C@@H](O[C@@H]2O[C@H](CO)[C@@H](O[C@@H]3O[C@H](CO)[C@@H](O)[C@H](O)[C@H]3NC(C)=O)[C@H](O)[C@H]2NC(C)=O)[C@@H]1O (some centres unmarked) [penta-N-acetylchitopentaose] | inhibited NO production but with less potency |  |  |
| CC(=O)N[C@H]1C(O)O[C@H](CO)[C@@H](O)[C@@H]1O (some centres unmarked) [N-acetylglucosamine] |  | increases the synthesis of hyaluronan | inhibit NO production |
| CC(=O)N[C@H]1[C@H](O[C@H]2[C@H](O)[C@@H](NC(C)=O)[C@H](O[C@H]3[C@H](O)[C@@H](NC(C)=O)C(O)O[C@@H]3CO)O[C@@H]2CO)O[C@H](CO)[C@@H](O[C@@H]2O[C@H](CO)[C@@H](O[C@@H]3O[C@H](CO)[C@@H](O[C@@H]4O[C@H](CO)[C@@H](O)[C@H](O)[C@H]4NC(C)=O)[C@H](O)[C@H]3NC(C)=O)[C@H](O)[C@H]2NC(C)=O)[C@@H]1O (some centres unmarked) [Hexa-N-acetylchitohexaose] | inhibited NO production but with less potency |  |  |
| N[C@H]1C(O)O[C@H](CO)[C@@H](O)[C@@H]1O (some centres unmarked) [glucosamine] |  |  | inhibit NO production |
